According to patent publication US10329294B2, “Pyrazolopyrimidine inhibitors of IRAK4 activity” (MERCK SHARP & DOHME CORP., priority 2015, dated 2019):
Where a name gives a salt, the structure may show the parent alone.

Target: IRAK4 (Homo sapiens (Human), UniProt Q9NWZ3)
Assay: IRAK4 Kinase Assay
Assay type: biochemical
Conditions: IMAP fluorescence polarization, 0.5 nM GST tagged IRAK4, 100 μM ATP, 30 minutes at 25° C.; read-out: IRAK4 IC50

Sequence of IRAK4 (Q9NWZ3 whole entry): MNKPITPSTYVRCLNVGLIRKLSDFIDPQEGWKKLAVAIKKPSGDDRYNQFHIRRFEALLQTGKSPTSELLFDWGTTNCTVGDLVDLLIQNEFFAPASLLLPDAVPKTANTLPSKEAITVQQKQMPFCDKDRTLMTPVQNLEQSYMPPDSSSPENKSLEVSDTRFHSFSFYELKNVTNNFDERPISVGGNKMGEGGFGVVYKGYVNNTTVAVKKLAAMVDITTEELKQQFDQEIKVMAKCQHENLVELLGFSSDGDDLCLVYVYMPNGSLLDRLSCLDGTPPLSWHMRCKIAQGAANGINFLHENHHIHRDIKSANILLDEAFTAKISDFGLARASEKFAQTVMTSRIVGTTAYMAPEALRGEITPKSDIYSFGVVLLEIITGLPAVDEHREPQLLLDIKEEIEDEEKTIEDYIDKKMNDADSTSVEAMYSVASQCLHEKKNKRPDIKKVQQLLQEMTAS

| IC50 | SMILES |
| --- | --- |
| 8 nM | N[C@H]1CCCC[C@H]1Nc1ccn2ncc(C(=O)Nc3ccccc3C(F)F)c2n1 [Example 131, 5-{[(1R,2S)-2-aminocyclohexyl]amino}-N-[2-(difluoromethyl)phenyl] pyrazolo[1,5-a]pyrimidine-3-carboxamide trifluoroacetate] |
| 2100 nM | N[C@@H]1[C@H](Nc2ccn3ncc(C(=O)Nc4ccccc4C(F)F)c3n2)CCCC1(F)F [Example 132, 5-{[(1R,2R)-2-amino-3,3-difluorocyclohexyl]amino}-N-[2-(difluoromethyl)phenyl] pyrazolo[1,5-a]pyrimidine-3-carboxamide trifluoroacetate] |
| 306 nM | O=C(Nc1ccsc1Cl)c1cnn2ccc(N3CC4CCC3CN4)nc12 (stereo not drawn) [Example 134, N-(2-chlorothiophen-3-yl)-5-(2,5-diazabicyclo[2.2.2]oct-2-yl)pyrazolo[1,5-a]pyrimidine-3-carboxamide trifluoroacetate] |
| 48 nM | O=C(Nc1cscc1C(F)F)c1cnn2ccc(N3CC4CCC3CN4)nc12 (stereo not drawn) [Example 135, 5-(2,5-diazabicyclo[2.2.2]oct-2-yl)-N-[4-(difluoromethyl)thiopen-3-yl]pyrazolo[1,5-a]pyrimidine-3-carboxamide trifluoroacetate] |
| 49 nM | Cn1cc(NC(=O)c2cnn3ccc(N4CC5CCC4CN5)nc23)c(C#N)n1 (stereo not drawn) [Example 136, N-(3-cyano-1-methyl-1H-pyrazol-4-yl)-5-(2,5-diazabicyclo[2.2.2]oct-2-yl)pyrazolo[1,5-a]pyrimidine-3-carboxamide trifluoroacetate] |
| 72 nM | Cn1cc(NC(=O)c2cnn3ccc(N4CCCNCC4)nc23)c(Br)n1 [Example 137, N-(3-bromo-1-methyl-1H-pyrazol-4-yl)-5-(1,4-diazepan-1-yl)pyrazolo[1,5-a]pyrimidine-3-carboxamide trifluoroacetate] |
| 0.3 nM | Cn1cc(NC(=O)c2cnn3ccc(N[C@@H]4CCCC[C@@H]4N)nc23)c(Br)n1 [Example 138, 5-{[(1R,2S)-2-aminocyclohexyl]amino}-N-(3-bromo-1-methyl-1H-pyrazol-4-yl)pyrazolo[1,5-a]pyrimidine-3-carboxamide trifluoroacetate] |
| 126 nM | Cn1cc(NC(=O)c2cnn3ccc(N[C@@H]4CCCC(F)(F)[C@@H]4N)nc23)c(Br)n1 [Example 139, 5-{[(1R,2R)-2-amino-3,3-difluorocyclohexyl]amino}-N-(3-bromo-1-methyl-1H-pyrazol-4-yl)pyrazolo[1,5-a]pyrimidine-3-carboxamide trifluoroacetate] |
| 42 nM | Cn1cc(NC(=O)c2cnn3ccc(N4CC5CCC4CN5)nc23)c(Br)n1 (stereo not drawn) [Example 140, N-(3-bromo-1-methyl-1H-pyrazol-4-yl)-5-(2,5-diazabicyclo[2.2.2]oct-2-yl)pyrazolo[1,5-a]pyrimidine-3-carboxamide trifluoroacetate] |
| 359 nM | N#Cc1cscc1NC(=O)c1cnn2ccc(N3CCCNCC3)nc12 [Example 141, N-(4-cyanothiophen-3-yl)-5-(1,4-diazepan-1-yl)pyrazolo[1,5-a]pyrimidine-3-carboxamide trifluoroacetate] |
| 524 nM | O=C(Nc1ccsc1Br)c1cnn2ccc(N3CC4CCC3CN4)nc12 (stereo not drawn) [Example 142, N-(2-bromothiophen-3-yl)-5-(2,5-diazabicyclo[2.2.2]oct-2-yl)pyrazolo[1,5-a]pyrimidine-3-carboxamide trifluoroacetate] |
| 7 nM | N[C@H]1CCCC[C@H]1Nc1ccn2ncc(C(=O)Nc3ccsc3C(F)(F)F)c2n1 [Example 144, 5-{[(1R,2S)-2-aminocyclohexyl]amino}-N-[2-(trifluoromethyl)thiophen-3-yl]pyrazolo[1,5-a]pyrimidine-3-carboxamide trifluoroacetate] |
| 165 nM | N#Cc1cscc1NC(=O)c1cnn2ccc(N3CC4CCC3CN4)nc12 (stereo not drawn) [Example 145, N-(4-cyanothiophen-3-yl)-5-(2,5-diazabicyclo[2.2.2]oct-2-yl)pyrazolo[1,5-a]pyrimidine-3-carboxamide trifluoroacetate] |
| 1460 nM | O=C(Nc1ccccc1C(F)F)c1cnn2ccc(N3CC4CCC3CN4)nc12 (stereo not drawn) [Example 146, 5-(2,5-diazabicyclo[2.2.2]oct-2-yl)-N-[2-(difluoromethyl)phenyl] pyrazolo[1,5-a]pyrimidine-3-carboxamide trifluoroacetate] |
| 979 nM | O=C(Nc1ccsc1C(F)(F)F)c1cnn2ccc(N3CC4CCC3CN4)nc12 (stereo not drawn) [Example 147, 5-(2,5-diazabicyclo[2.2.2]oct-2-yl)-N-[2-(trifluoromethyl)thiophen-3-yl]pyrazolo[1,5-a]pyrimidine-3-carboxamide trifluoroacetate] |
| 113 nM | Cn1cc(NC(=O)c2cnn3ccc(N4CCCNCC4)nc23)c(Cl)n1 [Example 148, N-(3-chloro-1-methyl-1H-pyrazol-4-yl)-5-(1,4-diazepan-1-yl)pyrazolo[1,5-a]pyrimidine-3-carboxamide trifluoroacetate] |
| 0.5 nM | Cn1cc(NC(=O)c2cnn3ccc(N[C@@H]4CCCC[C@@H]4N)nc23)c(Cl)n1 [Example 149, 5-{[(1R,2S)-2-aminocyclohexyl]amino}-N-(3-chloro-1-methyl-1H-pyrazol-4-yl)pyrazolo[1,5-a]pyrimidine-3-carboxamide trifluoroacetate] |
| 1010 nM | O=C(Nc1ccsc1C(F)(F)F)c1cnn2ccc(N3CCCNCC3)nc12 [Example 153, 5-(1,4-diazepan-1-yl)-N-[2-(trifluoromethyl)thiophen-3-yl]pyrazolo[1,5-a]pyrimidine-3-carboxamide trifluoroacetate] |
| 15 nM | Cn1ncc(NC(=O)c2cnn3ccc(N[C@@H]4CCCC[C@@H]4N)nc23)c1C(F)(F)F [Example 166, 5-{[(1R,2S)-2-aminocyclohexyl]amino}-N-[1-methyl-5-(trifluoromethyl)-1H-pyrazol-4-yl]pyrazolo[1,5-a]pyrimidine-3-carboxamide trifluoroacetate] |
| 480 nM | O=C(Nc1cscc1Cl)c1cnn2ccc(N3CCCNCC3)nc12 [Example 167, N-(4-chlorothiophen-3-yl)-5-(1,4-diazepan-1-yl)pyrazolo[1,5-a]pyrimidine-3-carboxamide trifluoroacetate] |
| 1 nM | N[C@H]1CCCC[C@H]1Nc1ccn2ncc(C(=O)Nc3cscc3Cl)c2n1 [Example 168, 5-{[(1R,2S)-2-aminocyclohexyl]amino}-N-(4-chlorothiophen-3-yl)pyrazolo[1,5-a]pyrimidine-3-carboxamide trifluoroacetate] |
| 54 nM | N[C@H]1CCCC[C@H]1Nc1ccn2ncc(C(=O)Nc3ccsc3)c2n1 [Example 181, 5-{[(1R,2S)-2-aminocyclohexyl]amino}-N-thiophen-3-ylpyrazolo[1,5-a]pyrimidine-3-carboxamide trifluoroacetate] |

| SMILES | IC50 |
| --- | --- |
| O=C(Nc1ccccc1C(F)F)c1cnn2ccc(N3CCCNCC3)nc12 [Example 130, 5-(1,4-diazepan-1-yl)-N-[2-(difluoromethyl)phenyl] pyrazolo[1,5-a]pyrimidine-3-carboxamide] | 8810 nM |
| N#Cc1sccc1NC(=O)c1cnn2ccc(N[C@@H]3CCCC(F)(F)[C@@H]3N)nc12 [Example 133, 5-{[(1R,2R)-2-amino-3,3-difluorocyclohexyl]amino}-N-(2-cyanothiophen-3-yl)pyrazolo[1,5-a]pyrimidine-3-carboxamide trifluoroacetate] | 95 nM |
| N#Cc1cscc1NC(=O)c1cnn2ccc(N[C@@H]3CCCC(F)(F)[C@@H]3N)nc12 [Example 143, 5-{[(1R,2R)-2-amino-3,3-difluorocyclohexyl]amino}-N-(4-cyanothiophen-3-yl)pyrazolo[1,5-a]pyrimidine-3-carboxamide] | 192 nM |
| Cn1cc(NC(=O)c2cnn3ccc(N[C@@H]4CCCC(F)(F)[C@@H]4N)nc23)c(Cl)n1 [Example 150, 5-{[(1R,2R)-2-amino-3,3-difluorocyclohexyl]amino}-N-(3-chloro-1-methyl-1H-pyrazol-4-yl)pyrazolo[1,5-a]pyrimidine-3-carboxamide] | 109 nM |
| N[C@@H]1[C@H](Nc2ccn3ncc(C(=O)Nc4ccsc4C(F)F)c3n2)CCCC1(F)F [Example 170, 5-{[(1R,2R)-2-amino-3,3-difluorocyclohexyl]amino}-N-[2-(difluoromethyl)thiophen-3-yl]pyrazolo[1,5-a]pyrimidine-3-carboxamide] | 560 nM |
| Cn1cc(NC(=O)c2cnn3ccc(N4CC5CCC(C4)N5)nc23)c(C(F)F)n1 [Example 172, 5-(3,8-diazabicyclo[3.2.1]oct-3-yl)-N-[3-(difluoromethyl)-1-methyl-1H-pyrazol-4-yl]pyrazolo[1,5-a]pyrimidine-3-carboxamide trifluoroacetate] | 1 nM |
| Cn1cc(NC(=O)c2cnn3ccc(N4CC5CNC(C5)C4)nc23)c(C(F)F)n1 (stereo not drawn) [Example 182, 5-[(3,6-diazabicyclo[3.2.1]oct-3-yl]-N-[3-(difluoromethyl)-1-methyl-1H-pyrazol-4-yl]pyrazolo[1,5-a]pyrimidine-3-carboxamide trifluoroacetate] | 14 nM |
| O=C(Nc1ccsc1Cl)c1cnn2ccc(N[C@@H]3CCCC[C@@H]3O)nc12 [Example 185, N-(2-chlorothiophen-3-yl)-5-{[(1R,2S)-2-hydroxycyclohexyl]amino} pyrazolo[1,5-a]pyrimidine-3-carboxamide] | 1580 nM |
| Cn1cc(NC(=O)c2cnn3ccc(N[C@@H]4CCCC[C@@H]4O)nc23)c(Cl)n1 [Example 186, N-(3-chloro-1-methyl-1H-pyrazol-4-yl)-5-{[(1R,2S)-2-hydroxycyclohexyl]amino} pyrazolo[1,5-a]pyrimidine-3-carboxamide] | 24 nM |
| N#Cc1sccc1NC(=O)c1cnn2ccc(N[C@@H]3CCCC[C@@H]3O)nc12 [Example 187, N-(2-cyanothiophen-3-yl)-5-{[(1R,2S)-2-hydroxycyclohexyl]amino} pyrazolo[1,5-a]pyrimidine-3-carboxamide] | 250 nM |
| N[C@@H]1[C@H](Nc2ccn3ncc(C(=O)Nc4ccsc4Cl)c3n2)CCCC1(F)F [Example 190, 5-{[(1R,2R)-2-amino-3,3-difluorocyclohexyl]amino}-N-(2-chlorothiophen-3-yl)pyrazolo[1,5-a]pyrimidine-3-carboxamide] | 891 nM |
